Our source for the GI50 and TGI values is PubChem BioAssay (NCI).

Among the test systems are UACC-62 melanoma; OVCAR-4 ovarian; MOLT-4 leukemia; K-562 leukemia; M14 melanoma; DU-145 prostate; CAKI-1 renal; KM12 colon.
Holding throughout (assay): inhibition of tumour cell growth, NCI panel, 48 h

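Dose response: 5 concentrations. Exposure: 48 h. Format: 96-well plates. Endpoint: linear interpolation; highest concentration if not reached. GI50 is the concentration that inhibits growth by half. TGI: total growth inhibition.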 A value given as a limit tells only on which side of the number the result lay.

For the molecule `FC(F)(F)c1[nH]ncc1-c1nc2c(N3CCCCC3)cc3[nH]ncc3c2c2c1CCCC2`, the GI50 in the experiment with UACC-62 melanoma is 0.391 µM; with OVCAR-4 ovarian, 1.42 µM; in the experiment with MOLT-4 leukemia, 0.744 µM; in the experiment with K-562 leukemia, 1.04 µM; in the experiment with M14 melanoma, 0.6 µM; in the experiment on DU-145 prostate, 0.702 µM. Besides, the GI50 was 0.711 µM in the experiment on CAKI-1 renal and 0.793 µM in the experiment on KM12 colon. The TGI with UACC-62 melanoma was 1.41 µM; in the experiment on OVCAR-4 ovarian it was above 15.3 µM; in the experiment with MOLT-4 leukemia, 2.78 µM; with K-562 leukemia it was above 50 µM; with M14 melanoma it was 1.42 µM; in the experiment with DU-145 prostate, above 13 µM. Also, the TGI with CAKI-1 renal worked out at 3.06 µM; in the experiment with KM12 colon, 7.95 µM.
`Nc1c(S(=O)(=O)O)cc(Nc2cccc(S(N)(=O)=O)c2)c2c1C(=O)c1ccccc1C2=O`: the TGI in the experiment on UACC-62 melanoma was 58.7 µM; in the experiment on OVCAR-4 ovarian it was above 100 µM; in the experiment on MOLT-4 leukemia, above 100 µM; in the experiment on K-562 leukemia it was above 100 µM; in the experiment with M14 melanoma, above 100 µM; with DU-145 prostate, above 100 µM. In addition, the TGI in the experiment on CAKI-1 renal and in the experiment with KM12 colon was above 100 µM throughout.
As for `O=c1c2[nH]c3ccccc3c2nc2n1CCS2`, the GI50 in the experiment with UACC-62 melanoma is 92.7 µM; with OVCAR-4 ovarian it was above 100 µM; in the experiment on K-562 leukemia, above 100 µM; in the experiment with M14 melanoma, above 100 µM; in the experiment with DU-145 prostate, above 100 µM; with CAKI-1 renal it was 38.7 µM. In addition, in the experiment with KM12 colon, the GI50 is 67 µM. In addition, the TGI in the experiment with UACC-62 melanoma, with OVCAR-4 ovarian, in the experiment with K-562 leukemia, with M14 melanoma, in the experiment on DU-145 prostate and in the experiment with CAKI-1 renal was above 100 µM in each case. The TGI in the experiment on KM12 colon was above 100 µM.
Turning to `O=C1OCC2=C1C(c1cccc(C(F)(F)F)c1)c1cc3c(cc1N2CCO)OCO3` (centres undefined), the GI50 with UACC-62 melanoma was 1.14 µM; in the experiment with OVCAR-4 ovarian it was 2.49 µM; in the experiment with MOLT-4 leukemia it was 1.02 µM; with K-562 leukemia it was 0.273 µM; in the experiment on DU-145 prostate it was 1.72 µM; in the experiment on CAKI-1 renal, 1.76 µM. The GI50 in the experiment with KM12 colon was 1.88 µM. Also, the TGI in the experiment on UACC-62 melanoma, in the experiment on OVCAR-4 ovarian, in the experiment with MOLT-4 leukemia, in the experiment on K-562 leukemia, with DU-145 prostate and in the experiment on CAKI-1 renal was above 50 µM each time. For the same molecule, in the experiment with KM12 colon, the TGI was above 50 µM.
Regarding `C=CC[N+]1(CCO)CCN=C1CCCCCCCCCCCCC` (centres undefined), the GI50 in the experiment with UACC-62 melanoma was 1.82 µM; with OVCAR-4 ovarian, 1.67 µM; in the experiment with M14 melanoma it was 1.64 µM; with DU-145 prostate it was 1.6 µM; with CAKI-1 renal, 1.65 µM. The TGI was determined as 3.52 µM in the experiment with UACC-62 melanoma; 3.45 µM in the experiment with OVCAR-4 ovarian; 2.99 µM in the experiment with M14 melanoma; 2.95 µM in the experiment on DU-145 prostate; 3.15 µM with CAKI-1 renal.
For `Nc1ccc(-c2ccc(Nc3cc(S(=O)(=O)O)c(N)c4c3C(=O)c3ccccc3C4=O)cc2)c(S(=O)(=O)O)c1`, the TGI in the experiment with UACC-62 melanoma, with OVCAR-4 ovarian, with MOLT-4 leukemia, in the experiment with K-562 leukemia, in the experiment with M14 melanoma and with DU-145 prostate was above 100 µM throughout. The TGI in the experiment on CAKI-1 renal and with KM12 colon was above 100 µM in each case.
As for `COc1cc(/C=C2\CCCC3C2=Nc2ccccc2NC3c2cc(OC)c(OC)c(OC)c2)cc(OC)c1OC` (centres undefined), the GI50 was 1.37 µM in the experiment on UACC-62 melanoma; 2.14 µM in the experiment on OVCAR-4 ovarian; 2.31 µM in the experiment with MOLT-4 leukemia; 2.1 µM in the experiment on K-562 leukemia; 1.27 µM in the experiment on M14 melanoma; 1.87 µM in the experiment on DU-145 prostate. For the same molecule, the GI50 in the experiment on CAKI-1 renal is 3.31 µM; with KM12 colon, 0.863 µM. Moreover, the TGI is 3.52 µM in the experiment on UACC-62 melanoma; above 100 µM in the experiment on OVCAR-4 ovarian; 5.4 µM in the experiment on MOLT-4 leukemia; 10.3 µM in the experiment on K-562 leukemia; 4.23 µM with M14 melanoma; 6.8 µM in the experiment with DU-145 prostate. Besides, the figures for the TGI in the experiment with CAKI-1 renal and in the experiment with KM12 colon were above 100 µM and 2.21 µM, respectively.
`CN1C(=O)N(C)C2C1NN=c1s/c(=C\c3c[nH]c4ccccc34)c(=O)n12` (centres undefined): the GI50 is 0.0464 µM in the experiment on UACC-62 melanoma; 0.0644 µM with MOLT-4 leukemia; 0.0312 µM with K-562 leukemia; 0.0294 µM with M14 melanoma; 0.0428 µM in the experiment with DU-145 prostate; 0.0309 µM in the experiment on CAKI-1 renal. Moreover, the GI50 in the experiment with KM12 colon is 0.04 µM. Moreover, the TGI in the experiment on UACC-62 melanoma is above 100 µM; in the experiment with OVCAR-4 ovarian, above 100 µM; in the experiment on MOLT-4 leukemia, above 100 µM; with K-562 leukemia, above 100 µM; with M14 melanoma, above 100 µM; with DU-145 prostate, above 28.9 µM. Moreover, the TGI with CAKI-1 renal and in the experiment with KM12 colon was above 100 µM in each case.
With `CN(C)c1ccc(/C=C/c2ccnc3ccc4ccccc4c23)cc1`, the TGI in the experiment on UACC-62 melanoma, with MOLT-4 leukemia, with K-562 leukemia, with M14 melanoma, with DU-145 prostate and in the experiment on CAKI-1 renal was above 100 µM each time. Also, the TGI with KM12 colon is above 100 µM.
As for `COc1cc(CNc2nc3cc(N)cc(N)c3nc2-c2ccccc2)cc(OC)c1OC`, the GI50 in the experiment with UACC-62 melanoma is 8.09 µM; in the experiment on MOLT-4 leukemia, 12.4 µM; in the experiment with K-562 leukemia, 1.76 µM; in the experiment on M14 melanoma, 9.52 µM; with DU-145 prostate, 5.24 µM; in the experiment with CAKI-1 renal, 1.9 µM. Moreover, in the experiment on KM12 colon, the GI50 is 0.478 µM. Moreover, the TGI with UACC-62 melanoma was 15.5 µM; in the experiment on MOLT-4 leukemia, above 50 µM; in the experiment with K-562 leukemia, above 50 µM; in the experiment on M14 melanoma it was 18.2 µM; in the experiment on DU-145 prostate, 20 µM; with CAKI-1 renal, 8.76 µM. Further, in the experiment on KM12 colon, the TGI worked out at 10.2 µM.
With `CCOC(=O)/C(=C/c1ccccc1)C(=O)c1ccccc1`, the GI50 in the experiment on UACC-62 melanoma was 2.73 µM; with OVCAR-4 ovarian it was 14.4 µM; with M14 melanoma, 3.77 µM; in the experiment on DU-145 prostate, 5.32 µM; in the experiment on CAKI-1 renal, 3.04 µM; in the experiment on KM12 colon, 2.82 µM. In addition, the TGI with UACC-62 melanoma came out at 9.15 µM; in the experiment with OVCAR-4 ovarian, 35.4 µM; in the experiment on M14 melanoma it was 15.5 µM; in the experiment with DU-145 prostate, 17.4 µM; with CAKI-1 renal, 10.4 µM; in the experiment on KM12 colon, 7.54 µM.
